Results taken from ChEMBL document CHEMBL5113487, “Novel anilinopyrimidine derivatives as potential EGFRT790M/C797S Inhibitors: Design, Synthesis, biological activity study” (Bioorg Med Chem, 2022).
The source made the active and inactive calls. No cut-off for these calls is given here.

Columns and labels:
[1] = tested on: BaF3; experiment: Antiproliferative activity against mouse BaF3 cells harboring del18/T790M/C797S triple mutant assessed as cell growth inhibition incubated for 72 hrs by cell titre glo luminescence assay; type: functional, cell-based; settings: BaF3, 72 h
[2] = tested on: A-431; experiment: Antiproliferative activity against human A-431 cells assessed as cell growth inhibition incubated for 72 hrs by cell titre glo luminescence assay; type: functional, cell-based; settings: A-431, 72 h
[3] = tested on: BaF3; experiment: cells; settings: Mus musculus, BaF3, 72 h
[4] = Antitumor activity against patient-derived human […] cells xenografted in mouse assessed as tumor growth inhibition at 20 mg/kg, po administered once a day for 28 days relative to control; type: functional; settings: LD1-0025-200717, 672 h, time 28 day, read-out: TGI
[5] = biological target: Mitogen-activated protein kinase 14 (Homo sapiens, UniProt Q16539); experiment: Inhibition of P38alpha (unknown origin)
[6] = Drug distribution in tumor of nude mouse implanted with mouse BaF3 cells harboring EGFR del18/T790M/C797S triple mutant at 15 to 45 mg/kg, po administered as single dose and measured after 4 hrs; type: ADME, organism-based, Neoplasm; settings: in vivo, dose 15-45 mg/kg
[7] = Half-life in mouse at 5 mg/kg measured upto 24 hrs by LC-MS/MS analysis; type: ADME, organism-based; settings: in vivo
[8] = Toxicity in Sprague-Dawley rat assessed as effect on body weight at 3 to 7.5 mg/kg, po administered once a day for 4 weeks and measured 4 weeks post recovery period; type: organism-based; settings: in vivo, 1344 h, dose 3-7.5 mg/kg, time 8 weeks
[9] = biological target: Epidermal growth factor receptor (Homo sapiens, UniProt P00533); experiment: In vivo inhibition of EGFR phosphorylation in nude mouse implanted with mouse BaF3 cells harboring EGFR del18/T790M/C797S triple mutant at 20 mg/kg, po administered as single dose and measured upto 24 hrs by Western blot analysis
[10] = Cmax in mouse at 5 mg/kg measured upto 24 hrs by LC-MS/MS analysis; type: ADME, organism-based; parameters: time < 24 hrs, dose 5 mg/kg; settings: in vivo
[11] = tested on: BaF3; experiment: In vivo inhibition of ERK phosphorylation in nude mouse implanted with mouse BaF3 cells harboring EGFR del18/T790M/C797S triple mutant at 20 mg/kg, po administered as single dose and measured upto 24 hrs by Western blot analysis; type: organism-based
[12] = biological target: Serine/threonine-protein kinase B-raf (Homo sapiens, UniProt P15056); experiment: Inhibition of BRAF (unknown origin)
[13] = Antitumor activity against patient-derived human […] cells xenografted in mouse assessed as tumor weight at 20 mg/kg, po administered once a day for 28 days relative to control; type: functional, LD1-0025-200717; settings: time 28 day
[14] = tested on: BaF3; experiment: Antitumor activity against mouse BaF3 cells harboring EGFR del18/T790M/C797S triple mutant implanted in Balb/c nude mouse assessed as tumor growth inhibition at 30 mg/kg, po administered once a day for 14 days relative to control; type: functional; settings: BaF3, 336 h, time 14 day, read-out: TGI
[15] = Inhibition of ABL (unknown origin); parameters: species or system Homo sapiens
[16] = biological target: Phosphatidylinositol 4,5-bisphosphate 3-kinase catalytic subunit alpha isoform (Homo sapiens, UniProt P42336); experiment: Inhibition of PI3Kalpha (unknown origin)
[17] = Toxicity in Sprague-Dawley rat assessed as body weight gain during recovery period at 15 mg/kg, po administered once a day for 4 weeks and measured 4 weeks post recovery period; type: organism-based; settings: in vivo, 1344 h, time 8 weeks
[18] = tested on: BaF3; experiment: Antitumor activity against mouse BaF3 cells harboring EGFR del18/T790M/C797S triple mutant implanted in Balb/c nude mouse assessed as tumor weight at 15 mg/kg, po administered once a day for 14 days; type: functional; settings: time 14 day
[19] = MRT in mouse at 5 mg/kg measured upto 24 hrs by LC-MS/MS analysis; type: ADME, organism-based; settings: in vivo
[20] = Antitumor activity against patient-derived human […] cells xenografted in mouse assessed as tumor growth inhibition at 40 mg/kg, po administered once a day for 28 days relative to control; type: functional; settings: LD1-0025-200717, 672 h, time 28 day, read-out: TGI
[21] = tested on: PC-9; experiment: Antitumor activity against human PC-9 cells harboring EGFR del18/T790M/C797S triple mutant xenografted in NOD/SCID mouse assessed as tumor growth inhibition at 30 mg/kg, po administered once a day for 21 days relative to control; type: functional; settings: PC-9, 504 h, time 21 day, read-out: TGI
[22] = biological target: CDK6/cyclin D3 (Homo sapiens, UniProt Q00534); experiment: Inhibition of CDK6/cyclin-D3 (unknown origin); type: protein-complex assay
[23] = tested on: BaF3; experiment: Antitumor activity against mouse BaF3 cells harboring EGFR del18/T790M/C797S triple mutant implanted in Balb/c nude mouse assessed as tumor growth inhibition at 15 mg/kg, po administered once a day for 14 days relative to control; type: functional; settings: BaF3, 336 h, time 14 day, read-out: TGI
[24] = Drug distribution in plasma of nude mouse implanted with mouse BaF3 cells harboring EGFR del18/T790M/C797S triple mutant at 15 to 45 mg/kg, po administered as single dose and measured after 4 hrs; type: ADME, organism-based; settings: in vivo, dose 15-45 mg/kg
[25] = tested on: BaF3; experiment: Antitumor activity against mouse BaF3 cells harboring EGFR del18/T790M/C797S triple mutant implanted in Balb/c nude mouse assessed as tumor growth inhibition at 40 mg/kg, po administered once a day for 14 days relative to control; type: functional; settings: BaF3, 336 h, time 14 day, read-out: TGI
[26] = AUC(0 to t) in mouse at 5 mg/kg measured upto 24 hrs by LC-MS/MS analysis; type: ADME, organism-based; parameters: time < 24 hrs, dose 5 mg/kg; settings: in vivo
[27] = Toxicity in orally dosed Sprague-Dawley rat assessed as maximum tolerated dose administered once a day for 4 weeks and measured 4 weeks post recovery period; type: organism-based; settings: in vivo, route po, time 8 weeks
[28] = Acute toxicity in Sprague-Dawley rat assessed as biological changes in clinical pathology at 15 to 60 mg/kg, IG administered as single dose and measured after 14 days; type: organism-based; settings: in vivo, po, 336 h, dose 15-60 mg/kg, time 14 day
[29] = biological target: RAC-gamma serine/threonine-protein kinase (Homo sapiens, UniProt Q9Y243); experiment: Inhibition of AKT3 (unknown origin)
[30] = tested on: BaF3; experiment: Antitumor activity against mouse BaF3 cells harboring EGFR del18/T790M/C797S triple mutant implanted in Balb/c nude mouse assessed as tumor weight at 40 mg/kg, po administered once a day for 14 days; type: functional; settings: time 14 day
[31] = Toxicity in Sprague-Dawley rat assessed as animal death at 3 to 15 mg/kg, po administered once a day for 4 weeks and measured 4 weeks post recovery period; type: organism-based; settings: in vivo, 1344 h, dose 3-15 mg/kg, time 8 weeks
[32] = Drug distribution in brain of nude mouse implanted with mouse BaF3 cells harboring EGFR del18/T790M/C797S triple mutant at 20 mg/kg, po administered as single dose and measured upto 24 hrs; type: ADME, organism-based; settings: in vivo
[33] = AUC(0 to infinity) in mouse at 5 mg/kg measured upto 24 hrs by LC-MS/MS analysis; type: ADME, organism-based; parameters: dose 5 mg/kg, time < 24 hrs; settings: in vivo
[34] = Antitumor activity against patient-derived human […] cells xenografted in mouse assessed as tumor weight at 40 mg/kg, po administered once a day for 28 days relative to control; type: functional, LD1-0025-200717; settings: time 28 day
[35] = Drug distribution in tumor of nude mouse implanted with mouse BaF3 cells harboring EGFR del18/T790M/C797S triple mutant at 20 mg/kg, po administered as single dose and measured upto 24 hrs; type: ADME, organism-based, Neoplasm; settings: in vivo
[36] = biological target: CDK9/cyclin T1 (Homo sapiens, UniProt P50750); experiment: Inhibition of CDK9/Cyclin T1 (unknown origin); type: protein-complex assay
[37] = tested on: PC-9; experiment: Antitumor activity against human PC-9 cells harboring EGFR del18/T790M/C797S triple mutant xenografted in NOD/SCID mouse assessed as tumor growth inhibition at 15 mg/kg, po administered once a day for 21 days relative to control; type: functional; settings: PC-9, 504 h, time 21 day, read-out: TGI
[38] = biological target: Epidermal growth factor receptor (Homo sapiens, UniProt P00533, C797S/EX18DEL/T790M); experiment: Inhibition of EGFR del18/T790M/C797S triple mutant (unknown origin) using TK as substrate incubated for 120 mins in the presence of ATP by HTRF assay
[39] = tested on: PC-9; experiment: Antitumor activity against human PC-9 cells harboring EGFR del18/T790M/C797S triple mutant xenografted in NOD/SCID mouse assessed as tumor growth inhibition at 40 mg/kg, po administered once a day for 21 days relative to control; type: functional; settings: PC-9, 504 h, time 21 day, read-out: TGI
[40] = biological target: Epidermal growth factor receptor (Homo sapiens, UniProt P00533, C797S/L858R/T790M); experiment: Inhibition of EGFR L858R/T790M/C797S triple mutant (unknown origin) using TK as substrate incubated for 120 mins in the presence of ATP by HTRF assay
[41] = tested on: BaF3; experiment: Antitumor activity against mouse BaF3 cells harboring EGFR del18/T790M/C797S triple mutant implanted in Balb/c nude mouse assessed as tumor weight at 30 mg/kg, po administered once a day for 14 days; type: functional; settings: time 14 day

Sequence of Epidermal growth factor receptor (Homo sapiens, UniProt P00533, C797S/L858R/T790M) (P00533 25-1210 T790M/C797S/L858R limits assumed): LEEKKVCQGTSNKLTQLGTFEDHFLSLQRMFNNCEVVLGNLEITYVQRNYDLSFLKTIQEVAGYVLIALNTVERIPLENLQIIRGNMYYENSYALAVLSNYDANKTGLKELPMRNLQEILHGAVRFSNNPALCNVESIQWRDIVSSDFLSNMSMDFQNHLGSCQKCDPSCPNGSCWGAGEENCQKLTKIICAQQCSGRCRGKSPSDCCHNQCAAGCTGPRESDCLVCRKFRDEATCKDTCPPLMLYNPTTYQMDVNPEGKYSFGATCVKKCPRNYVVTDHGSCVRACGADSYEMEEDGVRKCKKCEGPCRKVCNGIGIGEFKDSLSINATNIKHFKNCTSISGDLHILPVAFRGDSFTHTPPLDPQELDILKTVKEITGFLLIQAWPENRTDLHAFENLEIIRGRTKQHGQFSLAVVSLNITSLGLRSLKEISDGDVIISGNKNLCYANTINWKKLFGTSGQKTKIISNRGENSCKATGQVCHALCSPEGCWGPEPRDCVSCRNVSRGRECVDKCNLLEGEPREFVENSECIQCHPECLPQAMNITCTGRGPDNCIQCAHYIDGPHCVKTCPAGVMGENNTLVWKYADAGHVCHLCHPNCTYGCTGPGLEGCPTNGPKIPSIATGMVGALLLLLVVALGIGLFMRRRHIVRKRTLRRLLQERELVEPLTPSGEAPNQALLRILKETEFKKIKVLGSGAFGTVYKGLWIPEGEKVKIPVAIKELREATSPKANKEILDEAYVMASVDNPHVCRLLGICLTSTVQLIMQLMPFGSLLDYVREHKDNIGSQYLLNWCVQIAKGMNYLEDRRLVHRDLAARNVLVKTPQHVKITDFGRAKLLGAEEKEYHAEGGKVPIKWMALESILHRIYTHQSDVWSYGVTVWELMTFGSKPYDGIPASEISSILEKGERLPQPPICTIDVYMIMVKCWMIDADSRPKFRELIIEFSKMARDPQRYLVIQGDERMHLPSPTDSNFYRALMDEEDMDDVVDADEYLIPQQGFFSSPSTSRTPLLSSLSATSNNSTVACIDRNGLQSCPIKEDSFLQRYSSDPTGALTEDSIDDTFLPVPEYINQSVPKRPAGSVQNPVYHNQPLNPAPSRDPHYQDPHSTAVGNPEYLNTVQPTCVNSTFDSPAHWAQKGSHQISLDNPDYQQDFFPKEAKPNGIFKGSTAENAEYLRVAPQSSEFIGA
Sequence of Epidermal growth factor receptor (Homo sapiens, UniProt P00533) (P00533 whole entry, looked up): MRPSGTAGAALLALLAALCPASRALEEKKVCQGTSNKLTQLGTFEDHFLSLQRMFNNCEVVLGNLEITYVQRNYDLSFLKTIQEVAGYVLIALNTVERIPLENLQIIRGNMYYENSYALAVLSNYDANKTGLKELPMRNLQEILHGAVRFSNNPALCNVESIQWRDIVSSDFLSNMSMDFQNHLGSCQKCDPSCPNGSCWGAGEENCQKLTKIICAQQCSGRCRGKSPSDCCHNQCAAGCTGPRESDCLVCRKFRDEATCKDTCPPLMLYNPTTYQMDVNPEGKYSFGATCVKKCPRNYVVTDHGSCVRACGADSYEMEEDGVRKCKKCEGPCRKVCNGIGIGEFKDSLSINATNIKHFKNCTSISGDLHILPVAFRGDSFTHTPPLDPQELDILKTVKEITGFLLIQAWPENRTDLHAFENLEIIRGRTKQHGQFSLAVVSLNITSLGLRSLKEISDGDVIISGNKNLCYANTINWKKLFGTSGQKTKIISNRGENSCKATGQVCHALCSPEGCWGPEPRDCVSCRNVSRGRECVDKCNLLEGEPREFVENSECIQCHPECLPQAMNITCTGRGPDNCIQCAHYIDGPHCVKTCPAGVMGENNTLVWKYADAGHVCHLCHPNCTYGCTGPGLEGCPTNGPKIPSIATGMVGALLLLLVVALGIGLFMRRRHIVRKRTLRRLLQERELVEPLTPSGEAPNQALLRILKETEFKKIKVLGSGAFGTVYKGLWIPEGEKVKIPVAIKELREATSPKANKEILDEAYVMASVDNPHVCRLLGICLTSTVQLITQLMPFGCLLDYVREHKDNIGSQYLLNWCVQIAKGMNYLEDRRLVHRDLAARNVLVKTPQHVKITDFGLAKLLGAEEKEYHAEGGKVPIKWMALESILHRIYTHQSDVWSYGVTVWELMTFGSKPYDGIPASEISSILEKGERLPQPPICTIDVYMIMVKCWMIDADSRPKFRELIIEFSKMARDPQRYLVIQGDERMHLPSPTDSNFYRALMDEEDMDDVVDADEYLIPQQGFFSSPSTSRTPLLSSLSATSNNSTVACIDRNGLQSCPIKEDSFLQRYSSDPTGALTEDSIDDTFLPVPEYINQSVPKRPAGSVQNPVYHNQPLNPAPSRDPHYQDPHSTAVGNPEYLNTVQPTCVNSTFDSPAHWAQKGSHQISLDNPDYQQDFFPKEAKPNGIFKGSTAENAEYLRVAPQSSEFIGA
Sequence of Epidermal growth factor receptor (Homo sapiens, UniProt P00533, C797S/EX18DEL/T790M) (P00533 whole entry, looked up, stated change not applied): as the sequence (P00533 whole entry, looked up) above
Sequence of RAC-gamma serine/threonine-protein kinase (Q9Y243 whole entry): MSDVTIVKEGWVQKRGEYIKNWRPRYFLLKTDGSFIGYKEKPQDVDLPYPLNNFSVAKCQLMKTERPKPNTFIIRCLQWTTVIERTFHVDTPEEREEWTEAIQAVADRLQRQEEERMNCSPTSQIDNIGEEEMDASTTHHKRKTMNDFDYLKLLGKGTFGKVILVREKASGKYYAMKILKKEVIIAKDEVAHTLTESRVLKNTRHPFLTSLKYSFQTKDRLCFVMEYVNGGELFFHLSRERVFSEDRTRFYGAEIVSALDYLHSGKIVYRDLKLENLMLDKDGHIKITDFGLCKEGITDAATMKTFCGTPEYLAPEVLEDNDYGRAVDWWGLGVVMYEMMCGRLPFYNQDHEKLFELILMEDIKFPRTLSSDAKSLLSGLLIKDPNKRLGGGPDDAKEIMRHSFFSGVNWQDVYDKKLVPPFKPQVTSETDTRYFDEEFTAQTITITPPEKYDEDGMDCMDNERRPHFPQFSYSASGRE
Sequence of Serine/threonine-protein kinase B-raf (P15056 whole entry): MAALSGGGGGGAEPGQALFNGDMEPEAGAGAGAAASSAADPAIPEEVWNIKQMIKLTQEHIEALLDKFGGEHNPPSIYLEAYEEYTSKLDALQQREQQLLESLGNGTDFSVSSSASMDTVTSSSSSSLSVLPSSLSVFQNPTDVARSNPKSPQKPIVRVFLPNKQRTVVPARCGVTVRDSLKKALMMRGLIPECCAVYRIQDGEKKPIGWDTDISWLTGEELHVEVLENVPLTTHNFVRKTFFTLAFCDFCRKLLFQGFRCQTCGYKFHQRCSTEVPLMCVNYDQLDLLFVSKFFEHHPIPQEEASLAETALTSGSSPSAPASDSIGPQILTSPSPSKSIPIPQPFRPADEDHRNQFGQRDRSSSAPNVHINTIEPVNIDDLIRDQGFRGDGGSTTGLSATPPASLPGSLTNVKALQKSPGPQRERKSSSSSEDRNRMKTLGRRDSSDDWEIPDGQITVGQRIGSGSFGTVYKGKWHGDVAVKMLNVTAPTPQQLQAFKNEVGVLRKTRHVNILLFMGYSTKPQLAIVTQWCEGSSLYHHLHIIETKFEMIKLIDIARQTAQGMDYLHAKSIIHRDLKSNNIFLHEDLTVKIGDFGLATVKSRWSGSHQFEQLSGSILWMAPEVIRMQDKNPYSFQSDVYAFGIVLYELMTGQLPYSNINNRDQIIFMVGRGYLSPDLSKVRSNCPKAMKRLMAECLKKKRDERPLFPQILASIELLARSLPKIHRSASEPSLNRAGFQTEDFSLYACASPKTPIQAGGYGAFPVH

COc1cc(N2CCC(N3CCN(C)CC3)CC2)ccc1Nc1ncc(Cl)c(Nc2ccccc2P(C)(C)=O)n1 [BRIGATINIB]
IC50 [1]: 433 nM
IC50 [2]: 709 nM
IC50 [3]: < 100 nM

COCC1CN(C2CCN(c3cc(OC)c(Nc4ncc(Br)c(Nc5ccc6c(c5P(C)(C)=O)OCCO6)n4)cc3C)CC2)C1
inhibition in vivo at 20 mg/kg [4]: 58.4%
IC50 [5]: > 10000 nM
IC50 [1]: 14 nM
Drug uptake [6]: Active
half-life [7]: 2.9 h
Activity [8]: Non-Toxic
inhibition [9]: Active
Cmax [10]: 1990 ng/mL
inhibition [11]: Active
IC50 [12]: > 10000 nM
Activity [13]: 0.475 g
inhibition in vivo at 30 mg/kg [14]: 82.6%
IC50 [15]: 86 nM
IC50 [16]: > 10000 nM
Activity [17]: Toxic
Activity [18]: 0.653 g
MRT [19]: 4.7 h
inhibition in vivo at 40 mg/kg [20]: 67.4%
inhibition in vivo at 30 mg/kg [21]: 47.2%
IC50 [22]: > 10000 nM
inhibition in vivo at 15 mg/kg [23]: 48.4%
Drug uptake [24]: Active
inhibition in vivo at 40 mg/kg [25]: 90.3%
AUC(0-t) at 24 h [26]: 11600 ng·h/mL
MTD at 1344 h [27]: 15 mg/kg
Activity [28]: Non-Toxic
IC50 [29]: > 10000 nM
Activity [30]: 0.161 g
Activity [31]: Non-Toxic
Drug uptake [32]: Active
AUC(0-inf) [33]: 11600 ng·h/mL
Activity [34]: 0.38 g
Drug uptake [35]: Active
IC50 [36]: 4080 nM
inhibition in vivo at 15 mg/kg [37]: 22%
IC50 [38]: 0.31 nM
inhibition in vivo at 40 mg/kg [39]: 68.8%
IC50 [40]: 0.09 nM
Activity [41]: 0.319 g
